The target in assay [1] is LBD of chemoreceptor R2 (WP_136157342.1) (Brenneria roseae, UniProt A0A2U1TV64, H128N/K136R). It counts as binding. How it is done: (§1) Plasmids for the overexpression of the different proteins were transformed into E. coli BL21(DE3). The resulting strains were grown under continuous stirring (200 rpm) at 30 °C in 2-L Erlenmeyer flasks containing 500 mL of LB medium supplemented with 50 μg/mL kanamycin. At an OD660 of 0.5, protein expression was induced by the addition of 0.1 mM isopropyl β-D-1-thiogalactopyranoside. Growth was continued at 16 °C overnight prior to cell harvesting by centrifugation at 10,000 × g for 20 min. Cell pellets were resuspended in buffer A (Additional file 2: Table S4) and subsequently broken by French press treatment at 62.5 lb/in^2. After centrifugation at 20,000 × g for 30 min, the supernatants were loaded onto 5-mL HisTrap HP columns (Amersham Biosciences) equilibrated with buffer A, and the proteins were eluted with a linear gradient of buffer B (Additional file 2: Table S4). All proteins contain a hexa-histidine tag at the N-terminal extension (Additional file 2: Table S3) and were purified at 4 °C. The purified proteins were dialyzed overnight into the corresponding analysis buffers (Additional file 2: Table S4) for immediate analysis.
Sequence of LBD of chemoreceptor R2 (WP_136157342.1) (A0A2U1TV64 28-178 H128N/K136R): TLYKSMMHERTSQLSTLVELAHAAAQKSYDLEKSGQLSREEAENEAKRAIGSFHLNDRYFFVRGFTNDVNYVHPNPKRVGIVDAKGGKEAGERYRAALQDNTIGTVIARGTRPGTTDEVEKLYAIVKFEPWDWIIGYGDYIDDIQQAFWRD
(§2) All experiments were conducted on a VP microcalorimeter (Microcal, MA) at 15 °C for PacP-LBD and at 20 °C for the remaining proteins. Proteins were dialyzed into the analysis buffers specified in Additional file 2: Table S4, placed into the sample cell and titrated with aliquots of ligand solutions (1 to 10 mM) freshly prepared in dialysis buffer. The mean enthalpies measured from the injection of the ligands into the analysis buffer were subtracted from the raw titration data prior to data analysis with the MicroCal version of ORIGIN. The data were fitted with the “One binding site model” of ORIGIN.

Assay [2] concerns the target ligand binding domain of the chemoreceptor ECA_RS12390 (PacP-LBD, R1, WP_011094075.1) (Pectobacterium atrosepticum, UniProt Q6D464). Briefly: ITC binding to PacP-LBD. As to conditions: 15 °C, Nb = no binding. Here is the method:
as §1, §2

For assay [3], the target named is LBD of chemoreceptor R10 (WP_028866120.1). Briefly: ITC binding to R10-LBD. On the set-up: species or system Psychromonas aquimarina. Particulars: 20 °C, Nb = no binding. How it is done: as §1, §2
The target in assay [4] is LBD of chemoreceptor R6 (WP_174062248.1). Put plainly: ITC binding to R6-LBD. Also noted: species or system Agrobacterium larrymoorei. Particulars: 20 °C, Nb = no binding. How it is done:
as §1, §2

For assay [5], the target named is LBD of chemoreceptor R9 (WP_189529961.1) (Paludibacterium paludis, UniProt A0A918NWY2). Briefly: ITC binding to R9-LBD. As to conditions: 20 °C, Nb = no binding. Here is the method: as §1, §2
Sequence of LBD of chemoreceptor R9 (WP_189529961.1) (A0A918NWY2 entry or part of it): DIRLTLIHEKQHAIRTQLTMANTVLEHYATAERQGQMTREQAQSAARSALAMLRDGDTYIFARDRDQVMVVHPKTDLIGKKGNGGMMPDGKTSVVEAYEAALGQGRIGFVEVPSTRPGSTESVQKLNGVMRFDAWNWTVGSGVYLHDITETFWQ
Assay [6] has as its target LBD of chemoreceptor R5 (WP_028444678.1). Put plainly: ITC binding to R5-LBD. Also noted: species or system Chitinimonas koreensis. Particulars: 20 °C, Nb = no binding. How it is done: as §1, §2
Assay [7] has as its system ECA_RS12390-LBD (PacP-LBD). Briefly: Thermal shift ligand screening of PacP-LBD. It counts as binding, Pectobacterium atrosepticum. As to conditions: thermal shift assay, Biolog arrays PM1, PM2A, PM3B, PM4A. How it is done:
Assays were carried out on a MyIQ2 Real-Time PCR instrument (Bio-Rad, Hercules, CA, USA). Ligand solutions were prepared by dissolving the array compounds in 50 µL of Milli-Q water, which, according to the manufacturer, corresponds to a concentration of 10–20 mM. Freshly purified proteins were dialyzed into analysis buffer (Additional file 2: Table S4). Compound arrays PM1, PM2A (carbon sources), PM3B (nitrogen sources), and PM4A (phosphorus and sulfur sources) from Biolog (https://www.biolog.com/) were used. The compositions of these arrays are provided in Additional file 2: Table S1. The experiments were conducted in 96-well plates, and each assay mixture contained 20 µL of the dialyzed protein (at 80–50 µM), 2 µL of 5 × SYPRO orange (Life Technologies, Eugene, Oregon, USA), and 2.5 µL of the resuspended array compound or the equivalent amount of buffer in the ligand-free control. The samples were heated from 23 to 85 °C at a scan rate of 1 °C/min. The protein unfolding curves were monitored by detecting changes in SYPRO® Orange fluorescence. The Tm values were determined from the first derivative values of the raw fluorescence data.

The target of assay [8] is LBD of chemoreceptor R7 (WP_019915375.1). Put plainly: ITC binding to R7-LBD. On the set-up: species or system Methyloversatilis discipulorum. Particulars: 20 °C, Nb = no binding. How it is done: as §1, §2
Sequence of LBD of chemoreceptor R7 (WP_019915375.1) (as listed by the source): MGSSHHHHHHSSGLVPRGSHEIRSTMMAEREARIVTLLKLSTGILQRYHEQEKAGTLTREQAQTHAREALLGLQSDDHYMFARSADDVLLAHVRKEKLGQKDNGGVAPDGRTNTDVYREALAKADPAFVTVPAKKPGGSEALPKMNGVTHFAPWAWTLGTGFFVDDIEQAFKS
Assay [9] deals with LBD of chemoreceptor R3 (WP_006464688.1) (Herbaspirillum frisingense, UniProt A0ABU1PC34). Briefly: ITC binding to R3-LBD. Particulars: 20 °C, Nb = no binding. Here is the method:
as §1, §2

In assay [10] the target is LBD of chemoreceptor R4 (WP_158281851.1) (Rivihabitans pingtungensis, UniProt A0A318KJN4). Briefly: ITC binding to R4-LBD. Also noted: species or system Rivicola pingtungensis. As to conditions: 20 °C, Nb = no binding. Here is the method: as §1, §2
Sequence of LBD of chemoreceptor R4 (WP_158281851.1) (A0A318KJN4 entry or part of it): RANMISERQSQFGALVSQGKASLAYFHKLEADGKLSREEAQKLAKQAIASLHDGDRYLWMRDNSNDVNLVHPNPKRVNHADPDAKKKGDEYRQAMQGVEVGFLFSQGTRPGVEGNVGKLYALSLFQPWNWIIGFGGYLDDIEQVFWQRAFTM
A further assay has as its system P. atrosepticum SCRI1043. Briefly: Quantitative capillary chemotaxis assay, wild type. It counts as cell-based, Pectobacterium atrosepticum. As to conditions: wild type SCRI1043, 1 mM ligand, 30 min. How it is done: (§3) Overnight cultures of P. atrosepticum SCRI1043 were grown at 30 °C in minimal medium. At an OD660 of 0.4–0.45, the cultures were washed twice with chemotaxis buffer (50 mM K2HPO4/KH2PO4, 20 μM EDTA, 0.05% (v/v) glycerol, pH 7.0) and diluted to an OD660 of 0.1 in the same buffer. Subsequently, 230 μL of the resulting bacterial suspension was placed into the wells of 96-well plates. One-microliter capillary tubes (P1424, Microcaps; Drummond Scientific) were heat-sealed at one end and filled with either chemotaxis buffer (negative control) or chemotaxis buffer containing PacP ligands at a concentration of 1 mM. The capillaries were immersed in the bacterial suspensions at their open ends. After 30 min at room temperature, the capillaries were removed from the bacterial suspensions, rinsed with sterile water, and the contents were expelled into 1 mL of 40 mM K2HPO4, 15 mM KH2PO4. Serial dilutions were plated onto minimal medium supplemented with 15 mM glucose as the carbon source. The number of colony-forming units was determined after 36 h of incubation at 30 °C. In all the cases, the data were corrected with the number of cells that swam into the buffer-containing capillaries.

For assay [11], the system named is Pectobacterium atrosepticum SCRI1043. Briefly: Growth experiment, sole carbon source. The assay is classed as cell-based. Particulars: PFM9 minimal medium, 5 mM ligand, 30 °C, 48 h. Here is the method: (§4) P. atrosepticum SCRI1043 was cultured overnight in phosphate-free M9-based medium (PFM9) supplemented with 20 mM glucose as the carbon source and 500 µM inorganic phosphate as the phosphate source. Cultures were washed and then diluted to an OD600 of 0.02 in PFM9 supplemented with different PacP ligands as the sole carbon or phosphorous source at a final concentration of 5 mM. Subsequently, 200 µL aliquots of these cultures were transferred into microwell plates, which were subsequently grown at 30 °C on a Bioscreen microbiological growth analyzer (Oy Growth Curves Ab Ltd., Helsinki, Finland) for 48 h.

The test system of assay [12] is P. atrosepticum SCRI1043 pacP mutant (MpacP). Briefly: Quantitative capillary chemotaxis assay, pacP mutant. As to conditions: 1 mM ligand. It counts as cell-based, Pectobacterium atrosepticum.
Text: A mutant defective in ECA_RS12390 was constructed by homologous recombination using a derivative plasmid of the suicide vector pKNG101. Briefly, a 0.5-kb fragment corresponding to the region encoding the LBD of ECA_RS12390 was amplified by the primers specified in Additional file 2: Table S2 and cloned into pGEM®-T. The resulting plasmid pGEM::ECA_RS12390 was digested with XmaI, and the 0.5-kb insert was cloned into the same site at pKNG101 to generate pKNG101::ECA_RS12390. This plasmid was subsequently transformed into P. atrosepticum SRCI1043 via biparental conjugation using E. coli β2163. All the plasmids were verified by PCR and sequencing. The pETb(+) derivatives encoding the LBD of the different receptors analyzed in this study (Table 1) were purchased from GeneScript. Plasmid pBBR-ECA_RS12390 was constructed by amplifying the pacP gene using the primers detailed in Additional file 2: Table S2 and cloning of the PCR product into the NdeI/BamHI sites of pBBR1MCS2_START. The sequences of the proteins analyzed in this study are provided in Additional file 2: Table S3. The ECA_RS12390 nucleotide sequence is available in the published genome of P. atrosepticum SCRI1043 [60].
as §3

The subject of assay [13] is Pectobacterium atrosepticum SCRI1043. Put plainly: Growth experiment, sole phosphorus source. The assay is classed as cell-based. Particulars: PFM9 minimal medium, 5 mM ligand, 30 °C, 48 h. How it is done:
as §4

[14] abbreviates: ITC, 20 °C, R2 LBD, Nb = no binding.

The record followed here is article PMC12395807, “Chemoreceptor family in plant-associated bacteria responds preferentially to the plant signal molecule glycerol 3-phosphate” (Genome Biology, 2025).

The structures appear in SMILES notation. Read-outs that look alike come from different tables or passages of the source.

What is called Kd is a measure of binding affinity in units of concentration. A lower Kd goes with tighter binding.

Sequence of ligand binding domain of the chemoreceptor ECA_RS12390 (PacP-LBD, R1, WP_011094075.1) (Q6D464 entry or part of it): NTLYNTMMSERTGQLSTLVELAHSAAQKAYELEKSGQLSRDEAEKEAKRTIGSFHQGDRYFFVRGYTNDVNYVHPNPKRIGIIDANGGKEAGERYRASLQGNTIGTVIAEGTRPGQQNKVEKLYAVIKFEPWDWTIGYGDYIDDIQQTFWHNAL
Sequence of LBD of chemoreceptor R3 (WP_006464688.1) (A0ABU1PC34 entry or part of it): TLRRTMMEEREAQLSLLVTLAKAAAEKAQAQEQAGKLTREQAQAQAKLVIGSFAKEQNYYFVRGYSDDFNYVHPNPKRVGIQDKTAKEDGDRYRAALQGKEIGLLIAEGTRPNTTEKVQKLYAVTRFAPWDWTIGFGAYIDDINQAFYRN

With `CCCCCCC(N)C(=O)O` (racemic) [D,L-aminocaprylic acid], the KD result in assay [1] (setting [14]) is given as “did not reveal binding”.
As to `O=C(O)[C@H](CO)OP(=O)(O)O` [2-phosphoglycerate], in assay [2], the KD entry is given as “No binding”.
Consider `O=C(O)CC(Br)C(=O)O` (centres unmarked) [Bromosuccinate], for which the KD entry in [3], in assay [4] and in assay [6] was “Nb” in each case. In [5], this molecule gave a Kd of 200 ± 13 µM.
Regarding `O=C(O)CC(O)(CC(=O)O)C(=O)O` [Citrate], the KD result in assay [3], in [4] and in [5] was “Nb” in each case. The same molecule displayed a Kd in assay [6] of 10 ± 2 µM.
For the molecule `O=C(O)/C=C/C(=O)O` [Fumarate], the KD entry in [3] and in assay [5] was “Nb” throughout. The values for the Kd in [4] and in assay [6] were 90 ± 4 µM and 68 ± 6 µM, respectively.
Molecule `O=C(O)CO` [Glycolate] yielded a dissociation constant Kd in assay [3] of 322 ± 114 µM. In addition, the KD result in [4], in [5] and in [6] was “Nb” throughout.
On to `N[C@@H](CS(=O)(=O)O)C(=O)O` [L-cysteic acid], for which, in [1] (setting [14]), the KD result is on record as “did not reveal binding”.
Consider `C[C@H](O)C(=O)O` [L-lactate], for which the Kd in assay [3] was 463 ± 51 µM. Also, the KD result in assay [4], in [5] and in [6] was “Nb” in each case.
`O=C(O)CC(O)C(=O)O` (centres unmarked) [Malate]: in assay [3], the KD entry is reported as “Nb”. The Kd was 63 ± 1 µM in [4], 185 ± 5 µM in assay [5] and 61 ± 2 µM in assay [6].
Take `CC(CC(=O)O)C(=O)O` (centres unmarked) [Methylsuccinate]: the KD result in assay [3], in assay [4] and in assay [6] was “Nb” in each case. This molecule also registered a Kd in assay [5] of 254 ± 53 µM.
As to `CC(=O)C(=O)O` [Pyruvate], the KD result in assay [2] is “did not bind”.
As to `O=C(O)CCC(=O)O` [Succinate], the results for the Kd in [3], in [4] and in [6] were 362 ± 23 µM, 90 ± 4 µM and 127 ± 5 µM, respectively. Besides, the KD entry in assay [5] is given as “Nb”.
For `O=C(O)CC(CC(=O)O)C(=O)O` [Tricarballylate], the KD result in assay [3] and in assay [4] was “Nb” in each case. Moreover, the Kd in assay [5] came out at 138 ± 33 µM; in assay [6] it was 15 ± 1 µM.
Regarding `CC(=O)O` [acetic acid], the KD entry in [1] was “did not reveal binding”.
Consider `CC(=O)CC(=O)O` [acetoacetic acid], for which, in assay [1] (setting [14]), the KD entry is on record as “did not reveal binding”.
The same measure, in the same setting: the entry for `CCCCCC(=O)O` [caproic acid] is “did not reveal binding”.
As for `NC(=O)OP(=O)(O)O` [carbamoylphosphate], the “Tm change with respect to the ligand-free protein” value in [7] was “significant increases in Tm”. The KD entry in [2] was “did not result in measurable heat release”.
As for `O=C(CO)COP(=O)(O)O` [dihydroxyacetone phosphate], the KD entry in assay [8] is on record as “Nb”; in assay [3] it was “Nb”; in assay [4], “Nb”; in [9] it was “bound”; in assay [5], “Nb”; in assay [6], “Nb”. The Kd in assay [9] amounted to 109 ± 14 µM; in assay [10], 230 ± 10 µM; in assay [2], 13 ± 1 µM. The “chemotaxis (capillary assay)” value in the assay with P. atrosepticum SCRI1043 was “Modest chemoattraction”; in assay [12], “Only glycerol 2-phosphate served as an attractant for the mutant”. Further, in assay [11], the “growth as sole carbon source” value is on record as “devoid of apparent metabolic value”. Besides, the “growth as sole phosphorus source” value in assay [13] is on record as “devoid of apparent metabolic value”.
Take `O=CO` [formic acid]: in assay [1], the KD entry is recorded as “did not reveal binding”.
Take `O=CC(CO)OP(=O)(O)O` (centres unmarked) [glyceraldehyde 2-phosphate]: in assay [8], the KD result is listed as “bound”.
In the case of `CC(O)C(=O)O` (centres unmarked) [lactate], in [2], the KD entry is reported as “did not bind”.
As to `CCC(=O)O` [propionic acid], in [1] (setting [14]), the KD entry was “did not reveal binding”.
